According to patent US9732037B2, “2-aminopyridine-based selective neuronal nitric oxide synthase inhibitors” (Northwestern University, priority 2013, dated 2017):

Experiments:
Format in all cases: biochemical
bovine eNOS = bovine eNOS (Bos taurus (Bovine), UniProt P29473); test: NOS inhibition assay, eNOS; settings: for Ki: bovine eNOS, KM 1.7 μM, Ki = IC50/(1 + [S]/KM); for Selectivity e/n: ratio of Ki (eNOS) to nNOS
Text: (§1) Nitric oxide formation from NOS was monitored using literature techniques.

murine iNOS = murine iNOS (Mus musculus (Mouse), UniProt P29477); test: NOS inhibition assay, iNOS; settings: for Ki: murine iNOS, KM 8.2 μM, Ki = IC50/(1 + [S]/KM); for Selectivity i/n: ratio of Ki (iNOS) to nNOS
Text: as §1

rat nNOS = rat nNOS (Rattus norvegicus (Rat), UniProt P29476); test: NOS inhibition assay, nNOS; settings: KM 1.3 μM, Ki = IC50/(1 + [S]/KM)
Text: as §1

| Ki (bovine eNOS) [nM] | Selectivity e/n (bovine eNOS) | Ki (murine iNOS) [nM] | Selectivity i/n (murine iNOS) | Ki (rat nNOS) [nM] | Structure (SMILES) |
| --- | --- | --- | --- | --- | --- |
| 7960 | 52 | 5860 | 38 | 153 | Cc1cc(N)nc(CO[C@H]2CN[C@H](COCCOCc3cccc(F)c3)C2)c1 [Compound 12] |
| 2360 | 76 | 1900 | 61 | 31 | Cc1cc(N)nc(COC[C@@H]2C[C@H](OCc3cc(C)cc(N)n3)CN2)c1 [Compound 8] |
| 3470 | 102 | 5590 | 164 | 34 | Cc1cc(N)nc(COC[C@H]2C[C@@H](OCc3cc(C)cc(N)n3)CN2)c1 [Compound 7] |
| 62800 |  | 27100 |  | 616 | Cc1cc(N)nc(COc2cccc(OCc3ccncc3)c2)c1 [Compound 2] |
| 2180 | 84 | 2270 | 87 | 26 | Cc1cc(N)nc(COC[C@@H]2C[C@@H](OCc3cc(C)cc(N)n3)CN2)c1 [Compound 6] |
| 11700 | 35 | 8470 | 26 | 330 | Cc1cc(N)nc(CO[C@H]2CN[C@@H](COCCOCc3cccc(F)c3)C2)c1 [Compound 13] |
| 28000 |  | 17100 |  | 117 | Cc1cc(N)nc(COc2cccc(OCC3CCNCC3)c2)c1 [Compound 3] |
| 9300 | 46 | 13600 | 68 | 199 | Cc1cc(N)nc(COCCOC[C@H]2C[C@@H](OCc3cc(C)cc(N)n3)CN2)c1 [Compound 11] |
| 6250 | 89 | 2320 | 33 | 70 | Cc1cc(N)nc(COCCOC[C@@H]2C[C@@H](OCc3cc(C)cc(N)n3)CN2)c1 [Compound 10] |
| 6930 | 693 | 2950 | 295 | 10 | Cc1cc(N)nc(COC[C@H]2C[C@H](OCc3cc(C)cc(N)n3)CN2)c1 [Compound 9] |
| 18000 |  | 8470 |  | 60 | Cc1cc(N)nc(COc2cccc(OCCCN)c2)c1 [Compound 1] |
